{
  "source": "paper PMC12670405",
  "about": "“Second-Generation AURKA-Targeting PROTACs: Structural Optimization toward in Vivo Degradation in Neuroblastoma” (Journal of Medicinal Chemistry, 2025)",
  "key": {"CKAP2": {"test_system": "CKAP2", "test": "LC-MS/MS proteome profiling", "format": "cell-based, Homo sapiens", "set-up": "key to Significant (24h SK5527vs24h DMSO) FDR0 05: +: Statistical significance for differential regulation was set to a false discovery rate (FDR) of < 0.05 and |log2FC| = 2", "description": "(§1) IMR-32 cells were seeded in T-25 flasks at a density of 1.7 million cells/flask and treated the next day with DMSO (negative control), SK5527 (500 nM) or MK-5108 (500 nM) for 3 or 24 h (data for MK-5108 not discussed in this manuscript). Cell pellets were harvested at the respective time points, lysed, and the concentration of the obtained protein lysates measured as previously described. Details on further sample preparation, LC–MS/MS, and data analysis can be found in the Supporting Information. The LC–MS/MS proteomics data have been deposited to the ProteomeXchange Consortium via the PRIDE partner repository with the data set identifier PXD061539.\n(§2) Supplementary Methods 1 – LC-MS/MS proteomics\n(§3) From each sample, 100 µg of protein was isolated, the volumes were equalized with water and SDS and TEAB were added to a final concentration of 5% and 50 mM, respectively. Proteins were reduced and alkylated by addition of 10 mM Tris(2-carboxyethyl)phosphine hydrochloride and 40 mM chloroacetamide and incubation for 30 minutes at 25°C in the dark. Phosphoric acid was added to a final concentration of 1.2%, and samples were subsequently diluted 7-fold with binding buffer containing 90% methanol in 100 mM TEAB, pH 7.55. The samples were loaded on the 96-well S-Trap™ plate (Protifi), placed on top of a deepwell plate, and centrifuged for 2 min at 1,500 x g at RT. After protein binding, the S-trap™ plate was washed three times by adding 200 µl binding buffer and centrifugation for 2 min at 1,500 x g at RT. A new deepwell receiver plate was placed below the 96-well S-Trap™ plate and 50 mM TEAB containing trypsin (1/100, w/w) was added for digestion overnight at 37°C.\n(§4) Using centrifugation for 2 min at 1,500 x g, peptides were eluted in three steps, first with 80 µl 50 mM TEAB, then with 80 µl 0.2% formic acid (FA) in water and finally with 80 µl 0.2% FA in water/acetonitrile (ACN) (50/50, v/v). Eluted peptides were dried completely by vacuum centrifugation.\n(§5) Peptides were re-dissolved in 20 µl loading solvent A (0.1% trifluoroacetic acid in water/acetonitrile (ACN) (99.5:0.5, v/v)) of which 2 µl of sample was injected for LC-MS/MS analysis on an Ultimate 3000 ProFlow nanoLC system in-line connected to a Orbitrap Exploris 240 mass spectrometer (Thermo) equipped with pneu-Nimbus dual ion source (Phoenix S&T). Trapping was performed at 20 μl/min for 2 min in loading solvent A on a PepMap™ Neo Trap column (Thermo scientific, 300 μm internal diameter (I.D.), 5 μm beads). The peptides were separated on a 250 mm Odyssey Ultimate, 1.7µm C18, 75 µm inner diameter (Ionopticks) kept at a constant temperature of 45°C. Peptides were eluted by a gradient reaching 26,4 % MS solvent B (0.1% FA in acetonitrile) after 80 min, 44% MS solvent B at 95 min, 56% MS solvent B at 100min followed by a 5-minutes wash at 56% MS solvent B and re-equilibration with MS solvent A (0.1% FA in water). The flow rate was set to 250 nl/min. The mass spectrometer was operated in data-independent mode, automatically switching between MS and MS/MS acquisition. Full-scan MS spectra ranging from 375-1500 m/z with a normalized target value of 300%, a maximum fill time of 25 ms and a resolution at of 60,000 were followed by 30 quadrupole isolations with a precursor isolation width of 10 m/z for HCD fragmentation at an NCE of 30% after filling the trap at a normalized target value of 2000% for maximum injection time of 45 ms. MS2 spectra were acquired at a resolution of 15,000 with a scan range of 200-1800 m/z in the Orbitrap analyser without multiplexing. The isolation intervals were set from 400 – 900 m/z with a width of 10 m/z using window placement optimization. The polydimethylcyclosiloxane background ion at 445.120028 Da was used for internal calibration (lock mass) and QCloud has been used to control instrument longitudinal performance during the project.\n(§6) Analysis of the mass spectrometry data was performed in DiaNN (version 1.9). Precursor false discovery rate was […]\n(§7) set at 1%. […]"}, "PLK1": {"test_system": "PLK1", "test": "LC-MS/MS proteome profiling", "format": "cell-based, Homo sapiens", "set-up": "key to Significant (24h SK5527vs24h DMSO) FDR0 05: +: Statistical significance for differential regulation was set to a false discovery rate (FDR) of < 0.05 and |log2FC| = 2", "description": "as §1, §2, §3, §4, §5, §6, §7"}, "ZNF660": {"test_system": "ZNF660", "test": "LC-MS/MS proteome profiling", "format": "cell-based, Homo sapiens", "set-up": "key to Significant (24h SK5527vs24h DMSO) FDR0 05: +: Statistical significance for differential regulation was set to a false discovery rate (FDR) of < 0.05 and |log2FC| = 2", "description": "as §1, §2, §3, §4, §5, §6, §7"}, "SLK": {"molecular_target": "T1, SLK (Homo sapiens, UniProt Q9H2G2)", "T1 construct": "purchased Eurofins Discovery (DiscoverX KINOMEscan scanMAX)", "test": "KINOMEscan scanMAX", "format": "binding", "settings": "read-out: Percent Control", "description": "(§8) The kinome-wide binding assay was performed by Eurofins Discovery using the scanMAX screening platform. More information can be found on the Eurofins Discovery Web site."}, "MET(M1250T)": {"molecular_target": "T2, MET(M1250T) (Homo sapiens, UniProt P08581, M1250T)", "T2 construct": "purchased Eurofins Discovery (DiscoverX KINOMEscan scanMAX)", "T2 sequence (P08581 25-1390 M1250T)": "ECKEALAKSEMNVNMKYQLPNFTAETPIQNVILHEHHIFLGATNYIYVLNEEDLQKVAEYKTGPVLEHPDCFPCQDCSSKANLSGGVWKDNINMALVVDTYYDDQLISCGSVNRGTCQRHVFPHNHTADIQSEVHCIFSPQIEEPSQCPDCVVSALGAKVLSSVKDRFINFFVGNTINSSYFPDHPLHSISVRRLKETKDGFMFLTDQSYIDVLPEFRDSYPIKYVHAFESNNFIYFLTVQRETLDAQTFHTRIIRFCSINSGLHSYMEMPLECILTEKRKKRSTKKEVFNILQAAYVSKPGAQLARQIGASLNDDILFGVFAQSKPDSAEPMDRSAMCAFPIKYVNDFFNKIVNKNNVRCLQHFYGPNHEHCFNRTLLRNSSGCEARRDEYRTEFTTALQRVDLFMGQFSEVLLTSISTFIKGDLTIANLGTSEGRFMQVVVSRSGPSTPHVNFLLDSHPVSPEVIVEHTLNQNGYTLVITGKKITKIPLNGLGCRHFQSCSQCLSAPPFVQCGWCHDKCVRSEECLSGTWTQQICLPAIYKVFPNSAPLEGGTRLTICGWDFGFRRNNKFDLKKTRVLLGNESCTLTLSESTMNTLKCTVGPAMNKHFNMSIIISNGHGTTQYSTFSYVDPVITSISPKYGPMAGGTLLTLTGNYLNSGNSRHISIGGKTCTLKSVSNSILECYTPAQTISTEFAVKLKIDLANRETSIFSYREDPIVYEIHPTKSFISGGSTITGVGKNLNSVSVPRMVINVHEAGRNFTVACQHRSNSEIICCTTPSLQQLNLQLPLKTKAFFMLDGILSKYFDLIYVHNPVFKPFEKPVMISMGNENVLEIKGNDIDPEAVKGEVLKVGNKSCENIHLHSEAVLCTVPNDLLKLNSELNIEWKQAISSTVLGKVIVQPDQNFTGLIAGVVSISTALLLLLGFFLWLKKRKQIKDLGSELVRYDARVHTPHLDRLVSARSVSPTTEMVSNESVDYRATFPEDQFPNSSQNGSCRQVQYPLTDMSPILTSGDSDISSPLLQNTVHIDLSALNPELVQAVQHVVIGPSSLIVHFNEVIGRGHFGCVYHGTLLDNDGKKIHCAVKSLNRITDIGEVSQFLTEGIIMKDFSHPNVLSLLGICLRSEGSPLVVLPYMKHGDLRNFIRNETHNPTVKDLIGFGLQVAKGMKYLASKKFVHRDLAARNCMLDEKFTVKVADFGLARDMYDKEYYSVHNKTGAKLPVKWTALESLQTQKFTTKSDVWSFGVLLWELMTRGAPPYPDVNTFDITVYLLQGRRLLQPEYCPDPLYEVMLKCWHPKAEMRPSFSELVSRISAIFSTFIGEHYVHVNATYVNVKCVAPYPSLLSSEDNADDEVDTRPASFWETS", "test": "KINOMEscan scanMAX", "format": "binding", "settings": "read-out: Percent Control", "description": "as §8"}, "EPHA3": {"molecular_target": "T3, EPHA3 (Homo sapiens, UniProt P29320)", "T3 construct": "purchased Eurofins Discovery (DiscoverX KINOMEscan scanMAX)", "T3 sequence (P29320 21-983)": "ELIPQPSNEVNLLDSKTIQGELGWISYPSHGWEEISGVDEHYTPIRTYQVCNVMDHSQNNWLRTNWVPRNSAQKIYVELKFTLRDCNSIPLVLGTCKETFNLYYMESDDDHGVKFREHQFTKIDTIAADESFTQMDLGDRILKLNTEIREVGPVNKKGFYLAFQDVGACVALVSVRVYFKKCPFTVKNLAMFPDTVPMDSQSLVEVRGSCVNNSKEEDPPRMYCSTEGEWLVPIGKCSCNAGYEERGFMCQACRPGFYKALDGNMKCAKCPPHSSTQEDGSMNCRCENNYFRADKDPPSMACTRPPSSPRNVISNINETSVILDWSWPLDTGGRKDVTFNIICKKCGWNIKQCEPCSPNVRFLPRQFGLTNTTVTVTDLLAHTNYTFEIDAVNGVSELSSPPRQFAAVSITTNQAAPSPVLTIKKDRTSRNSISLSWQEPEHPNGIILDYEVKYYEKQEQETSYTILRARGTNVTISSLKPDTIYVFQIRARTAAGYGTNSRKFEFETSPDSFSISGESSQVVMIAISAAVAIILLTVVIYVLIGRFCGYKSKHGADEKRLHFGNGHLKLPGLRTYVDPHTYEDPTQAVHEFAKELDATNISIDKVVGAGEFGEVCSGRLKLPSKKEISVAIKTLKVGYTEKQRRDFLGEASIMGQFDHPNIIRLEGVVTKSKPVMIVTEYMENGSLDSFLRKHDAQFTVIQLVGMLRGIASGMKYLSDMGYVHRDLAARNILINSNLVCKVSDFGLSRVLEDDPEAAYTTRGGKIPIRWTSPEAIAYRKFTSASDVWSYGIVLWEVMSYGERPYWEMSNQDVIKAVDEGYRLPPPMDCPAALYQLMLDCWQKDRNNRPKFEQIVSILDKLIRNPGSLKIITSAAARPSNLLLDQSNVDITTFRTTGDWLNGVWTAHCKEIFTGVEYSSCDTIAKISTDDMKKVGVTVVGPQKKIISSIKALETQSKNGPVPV", "test": "KINOMEscan scanMAX", "format": "binding", "settings": "read-out: Percent Control", "description": "as §8"}, "LZK": {"molecular_target": "T4, LZK (Homo sapiens, UniProt O43283)", "T4 construct": "purchased Eurofins Discovery (DiscoverX KINOMEscan scanMAX)", "T4 sequence (O43283 whole entry)": "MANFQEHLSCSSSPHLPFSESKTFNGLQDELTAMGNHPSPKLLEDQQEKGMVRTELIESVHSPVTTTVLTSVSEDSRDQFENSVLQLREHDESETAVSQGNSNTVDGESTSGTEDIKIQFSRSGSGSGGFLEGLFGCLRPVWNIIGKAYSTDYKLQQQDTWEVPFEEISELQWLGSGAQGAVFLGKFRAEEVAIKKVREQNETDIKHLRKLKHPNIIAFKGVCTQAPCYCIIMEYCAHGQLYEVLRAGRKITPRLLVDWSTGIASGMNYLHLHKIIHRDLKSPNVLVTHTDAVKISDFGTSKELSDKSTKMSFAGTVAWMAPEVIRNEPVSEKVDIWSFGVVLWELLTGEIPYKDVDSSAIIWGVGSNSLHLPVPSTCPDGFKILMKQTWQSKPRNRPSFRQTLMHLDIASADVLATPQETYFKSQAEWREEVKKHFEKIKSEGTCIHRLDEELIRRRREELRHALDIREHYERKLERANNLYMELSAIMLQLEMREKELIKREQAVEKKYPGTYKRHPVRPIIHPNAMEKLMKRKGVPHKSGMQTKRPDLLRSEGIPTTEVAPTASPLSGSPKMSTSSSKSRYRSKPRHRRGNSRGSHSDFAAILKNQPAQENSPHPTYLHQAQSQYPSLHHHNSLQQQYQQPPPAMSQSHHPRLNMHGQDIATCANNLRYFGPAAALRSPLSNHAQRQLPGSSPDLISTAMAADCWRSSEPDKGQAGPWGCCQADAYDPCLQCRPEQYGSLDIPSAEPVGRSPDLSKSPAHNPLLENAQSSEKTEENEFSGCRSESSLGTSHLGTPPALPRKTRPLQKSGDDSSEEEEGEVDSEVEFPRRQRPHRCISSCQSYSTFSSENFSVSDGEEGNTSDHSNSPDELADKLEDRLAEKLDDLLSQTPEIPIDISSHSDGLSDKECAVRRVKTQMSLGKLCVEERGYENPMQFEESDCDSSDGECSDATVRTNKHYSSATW", "test": "KINOMEscan scanMAX", "format": "binding", "settings": "read-out: Percent Control", "description": "as §8"}, "LRRK2": {"molecular_target": "T5, LRRK2 (Homo sapiens, UniProt Q5S007)", "T5 construct": "purchased Eurofins Discovery (DiscoverX KINOMEscan scanMAX)", "test": "KINOMEscan scanMAX", "format": "binding", "settings": "read-out: Percent Control", "description": "as §8"}, "JRKL": {"test_system": "JRKL", "test": "LC-MS/MS proteome profiling", "format": "cell-based, Homo sapiens", "set-up": "key to Significant (3h SK5527vs3h DMSO) FDR0 05 / Significant (24h SK5527vs24h DMSO) FDR0 05: +: Statistical significance for differential regulation was set to a false discovery rate (FDR) of < 0.05 and |log2FC| = 2", "description": "as §1, §2, §3, §4, §5, §6, §7"}},
  "data": [
    {"smiles": "Cc1cc(Nc2ccc(F)c(CC3(C(=O)N4CCC(F)(CN5CCN(c6ccc(N7CCC(=O)NC7=O)cn6)CC5)CC4)CCN(Cc4cccc(Cl)c4F)CC3)n2)n[nH]1", "note": "[SK5527]", "values": [
      {"measurement": "logFC (3h SK5527vs3h DMSO)", "setting": "CKAP2; IMR-32, 3h", "value": 0.32},
      {"measurement": "Significant (24h SK5527vs24h DMSO) FDR0 05", "setting": "CKAP2; IMR-32, 24h", "value": "+"},
      {"measurement": "logFC (24h SK5527vs24h DMSO)", "setting": "CKAP2; IMR-32, 24h", "value": 2.1},
      {"measurement": "logFC CKAP2", "setting": "CKAP2; SK5527 vs DMSO (24h)", "value": 2.1},
      {"measurement": "logFC (3h SK5527vs3h DMSO)", "setting": "PLK1; IMR-32, 3h", "value": 0.31},
      {"measurement": "Significant (24h SK5527vs24h DMSO) FDR0 05", "setting": "PLK1; IMR-32, 24h", "value": "+"},
      {"measurement": "logFC (24h SK5527vs24h DMSO)", "setting": "PLK1; IMR-32, 24h", "value": 2.19},
      {"measurement": "logFC PLK1", "setting": "PLK1; SK5527 vs DMSO (24h)", "value": 2.19},
      {"measurement": "logFC (3h SK5527vs3h DMSO)", "setting": "ZNF660; IMR-32, 3h", "value": -0.15},
      {"measurement": "Significant (24h SK5527vs24h DMSO) FDR0 05", "setting": "ZNF660; IMR-32, 24h", "value": "+"},
      {"measurement": "logFC (24h SK5527vs24h DMSO)", "setting": "ZNF660; IMR-32, 24h", "value": -2.02},
      {"measurement": "logFC ZNF660", "setting": "ZNF660; SK5527 vs DMSO (24h)", "value": -2.02},
      {"measurement": "remaining binding at 0.1 µM", "setting": "SLK; 100 nM", "value": 95, "unit": "%"},
      {"measurement": "remaining binding at 1 µM", "setting": "SLK; 1000 nM", "value": 100, "unit": "%"},
      {"measurement": "remaining binding at 0.1 µM", "setting": "MET(M1250T); 100 nM", "value": 85, "unit": "%"},
      {"measurement": "remaining binding at 1 µM", "setting": "MET(M1250T); 1000 nM", "value": 80, "unit": "%"},
      {"measurement": "remaining binding at 0.1 µM", "setting": "EPHA3; 100 nM", "value": 99, "unit": "%"},
      {"measurement": "remaining binding at 1 µM", "setting": "EPHA3; 1000 nM", "value": 71, "unit": "%"},
      {"measurement": "remaining binding at 0.1 µM", "setting": "LZK; 100 nM", "value": 92, "unit": "%"},
      {"measurement": "remaining binding at 1 µM", "setting": "LZK; 1000 nM", "value": 90, "unit": "%"},
      {"measurement": "remaining binding at 0.1 µM", "setting": "LRRK2; 100 nM", "value": 100, "unit": "%"},
      {"measurement": "remaining binding at 1 µM", "setting": "LRRK2; 1000 nM", "value": 94, "unit": "%"},
      {"measurement": "Significant (3h SK5527vs3h DMSO) FDR0 05", "setting": "JRKL; IMR-32, 3h", "value": "+"},
      {"measurement": "logFC (3h SK5527vs3h DMSO)", "setting": "JRKL; IMR-32, 3h", "value": 5.38},
      {"measurement": "Significant (24h SK5527vs24h DMSO) FDR0 05", "setting": "JRKL; IMR-32, 24h", "value": "+"},
      {"measurement": "logFC (24h SK5527vs24h DMSO)", "setting": "JRKL; IMR-32, 24h", "value": 3.68},
      {"measurement": "logFC JRKL", "setting": "JRKL; SK5527 vs DMSO (3h)", "value": 5.38},
      {"measurement": "logFC JRKL", "setting": "JRKL; SK5527 vs DMSO (24h)", "value": 3.68}
    ]}
  ]
}
